Experimental data published in patent publication US20080306047A1, “Use of Aza-Phenylalanine Compounds For Treating Cardiac Arrhythmia” (priority 2005, published 2008).

How the values were obtained:
[1] = tested on: isolated rat hearts; assay: Reperfusion-induced arrhythmia in isolated rat hearts (Langendorff) subjected to 40-min global ischemia; parameters: species or system Wistar rats; settings: 40-min ischemia, 50 min reperfusion, drug 1 μM in K-H solution, mean ± SEM
Protocol: Wistar rats (230-330 g) are anaesthetized by intraperitoneal injection of urethane (0.7 ml 20% w/v solution/100 g body weight), followed by intraperitoneal injection of heparin (2500 IU/rat). Having opened the thorax a cannula filled with cold Krebs-Henseleit (K-H) solution is inserted into the ascending aorta. After that the heart is excised, it is connected to Langendorff's apparatus and perfused with K-H solution (K-H solution, in mM: 118.6 NaCl; 4.7 KCl; 11.1 glucose; 25 NaHCO3; 1.66 MgSO4; 1.2 NaH2PO4, 2.52 […]; pH=7.4) under constant pressure (60 cm H2O). Prior to use, the K-H perfusion solution is passed through a cellulose acetate filter (pore size 5 μm) to remove any particulate impurities. The perfusion solution is kept at 38.5° C. and gassed with 95% O2 and 5% CO2. Two silver (AgCl) electrodes are set on the surface of the heart in the direction of electrical axis of the heart for recording electrocardiogram. Electrodes are placed on the heart in such a position that a sufficient amplitude of P wave and QRS complex is obtained. The following experimental groups are studied: 1) isolated hearts are perfused with oxygenated K-H solution for 30 min followed by 40 min of global ischemia and followed by 50 min of reperfusion with oxygenated K-H solution; 2) isolated hearts are perfused with oxygenated K-H solution for 20 min, followed by 10 min perfusion with experimental drug dissolved in K-H and then the hearts are exposed to 40 min of global ischemia followed by 50 min reperfusion with experimental drug dissolved in K-H. The used experimental drugs are compounds of formulae IV, V and VI as defined above. As a positive control direct thrombin inhibitor argatroban and low molecular weight heparin nadroparin are used. The hearts are monitored for the duration of proarrhythmic events according to the Lambeth convention (Walker et al., Cardiovascular Res 1988; 22: 447-455). Lactate dehydrogenase (LDH) release rate is determined spectophotometrically (Wroblevski & LaDue, Proc Exp Biol Med 1955; 90: 210-213) in the coronary effluent and is expressed in μkat per minute and per weight of the heart (Grasic Kuhar et al. Eur J Pharmacol 2004; 488: 137-46).

[2] = tested on: isolated rat hearts; assay: Reperfusion-induced arrhythmia in isolated rat hearts (Langendorff), 25-min global no-flow ischemia, 30 min reperfusion; parameters: species or system Wistar rats; settings: 1 μM and 10 μM (+DMSO 500 μL/L), n=12
Protocol: Hearts from male Wistar rats (300-370 g) anesthetized with diethyl-ether inhalation were perfused with Krebs-Henseleit buffer at 37° C. gassed with carbogen in Langendorff mode as described (Onody A et al., Cardiovasc Res. 2003, 58: 663-670). After an initial 15 min aerobic, normothermic perfusion period, hearts are subjected to 25-min of global, no-flow, normothermic ischemia, followed by 30 min normoxic, normothermic reperfusion. Measured parameters were heart rate and incidence of reperfusion-induced ventricular fibrillation (VF) and ventricular tachycardia (VT). Epicardial electrocardiogram was recorded throughout the experimental protocol to determine heart rate, VF and VT according to the Lambeth conventions (Walker et al., Cardiovasc Res. 1988; 22: 447-455) as described (Csonka et al., 2003; J Cardiovasc Pharmacol 41: 916-922; Ferdinandy et al., Cardiovasc Res. 1995; 58: 663-670.). Recording and evaluation of the ECG was performed using the SPEL Advanced Isosys system (Experimetria Ltd, Budapest, Hungary). Experimental groups were designed as follows: control, solvent (DMSO 500 μL/L), compound of formula IV at 1 μM (+DMSO 500 μL/L), compound of formula IV at 10 μM (+DMSO 500 μL/L), positive control: nifedipine at 0.5 μM (+DMSO 500 μL/L). Animals were randomly assigned to the different groups, however, perfusions were done in 4 parallel experiments within a group (n=12 in each group). The perfusion medium contained the drugs throughout the entire perfusion protocol in the treated groups. HR was compared to the solvent-treated group using ANOVA followed by Dunn's test. The incidence of VF and VT were compared with Chi^2 test in all groups, than each group was compared to the solvent-treated group using the Fischer's exact test.
Compound of formula IV was tested at 10 μM (Compound of formula IV, 10 μM) and 1 μM (Compound of formula IV, 1 μM), nifedipine was tested at 0.5 μM. Chi^2 test followed by the Fischer's exact test. * p<0.05; ** p<0.01; ## p<0.01 (all groups compared to DMSO group)

SMILES	Duration VF (ventricular fibrillation) [1] [s]	Duration VT (ventricular tachycardia) [1] [s]	Duration of all proarrhythmic events (VT, VF, extrasystolia and asystolia) [1] [s]	incidence of reperfusion-induced ventricular fibrillation (VF) ([2]; compared to DMSO group)	incidence of reperfusion-induced ventricular tachycardia (VT) ([2]; compared to DMSO group)	heart rate (HR) ([2]; compared to solvent-treated group)
CC1CNc2c(cccc2S(=O)(=O)N[C@@H](CCCNC(=N)N)C(=O)N2CC[C@@H](C)C[C@@H]2C(=O)O)C1 (stereo partly drawn) [Argatroban, argatroban, reference compound]	583.6 ± 228.6	828.7 ± 233.7	1731.0 ± 445.0			
N/C(=N\O)c1cccc(CN(NS(=O)(=O)c2ccc3ccccc3c2)C(=O)N2CCCCCC2)c1 [Compound V]	149.3 ± 86.4	60.0 ± 30.8	278.3 ± 104.2			
N=C(N)c1cccc(CN(NS(=O)(=O)c2ccc3ccccc3c2)C(=O)N2CCCCCC2)c1 [Compound IV]	78.6 ± 42.6	87.2 ± 53.3	353.3 ± 148.1	concentration-dependently decreased	not significantly changed	not significantly changed
N=C(N)c1cccc(CN(NS(=O)(=O)Cc2ccccc2F)C(=O)N2CCCCCC2)c1 [Compound VI]	596.0 ± 469.4	99.5 ± 77.95	810.2 ± 461.4			
